“And” between values parts separate entries of the source, which are not always exact repeats. Equal values may be shown once.
Tested on: 855422-203-R-J1-PDC complex spheroid growth
Assay: Anticancer human tumor 855422-203-R-J1-PDC patient-derived bladder carcinoma cell line growth inhibition [AhR]
Conditions: for viability, T/C: stronger effect = lower value; for IC50: curve of first compound; active = viability on the fitted dose curve at most 10% of control; inactive = the rest
Method in brief: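 Spheroids combined tumor cells with HUVEC endothelial cells and human MSCs as stroma. AhR antagonists were paired with standard or investigational drugs, each dosed in half-log steps down from near clinical Cmax, or from 10 microM where Cmax was unknown.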
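Also: spheroids exposed to agents for seven days before readout.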
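For viability, T/C in this document: percent of DMSO vehicle control luminescence viability.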

COc1cc(Nc2ncc3c(n2)-c2ccc(Cl)cc2C(c2c(F)cccc2OC)=NC3)ccc1C(=O)O
inactive: viability, T/C (compound 0.0316 µM) 102% and 109% and 95.2% | viability, T/C (compound 0.1 µM) 105% and 114% (2×) | viability, T/C (compound 0.316 µM) 60.7% and 90.8% and 66.4% | viability, T/C (compound 1 µM) 55.4% and 89% and 51.6% | viability, T/C (compound 3.16 µM) 47.3% and 82.6% and 48.8% | viability, T/C (compound 10 µM) 45.4% and 68.6% and 47%

Nc1ccn(C2OC(CO)C(O)C2(F)F)c(=O)n1 (stereo unspecified) + Cc1cncc(-c2nc(NCCc3c[nH]c4ccccc34)c3ncn(C(C)C)c3n2)c1
inactive: viability, T/C (second compound 0.1 µM, first compound 0.0316 µM) 65.8% | viability, T/C (second compound 0.1 µM, first compound 0.1 µM) 22.5% | viability, T/C (second compound 0.1 µM, first compound 0.316 µM) 15.1% | viability, T/C (second compound 0.1 µM, first compound 1 µM) 12.1% | viability, T/C (second compound 0.1 µM, first compound 3.16 µM) 10.7% | viability, T/C (second compound 0.1 µM, first compound 10 µM) 7.08% | viability, T/C (second compound 0.316 µM, first compound 0.0316 µM) 61.6% | viability, T/C (second compound 0.316 µM, first compound 0.1 µM) 26.9% | viability, T/C (second compound 0.316 µM, first compound 0.316 µM) 12.9% | viability, T/C (second compound 0.316 µM, first compound 1 µM) 12.8% | viability, T/C (second compound 1 µM, first compound 0.0316 µM) 59.6% | viability, T/C (second compound 1 µM, first compound 0.1 µM) 22.8% | viability, T/C (second compound 1 µM, first compound 0.316 µM) 13.5% | viability, T/C (second compound 1 µM, first compound 1 µM) 9.62% | viability, T/C (second compound 3.16 µM, first compound 0.0316 µM) 65.2% | viability, T/C (second compound 3.16 µM, first compound 0.1 µM) 37.5% | viability, T/C (second compound 3.16 µM, first compound 0.316 µM) 16.2% | viability, T/C (second compound 3.16 µM, first compound 1 µM) 8.68%
42.5 nM: IC50 (second compound 1 µM)
< 31.6 nM: IC50 (second compound 10 µM)
46.3 nM: IC50 (second compound 0.316 µM)
active: viability, T/C (second compound 0.316 µM, first compound 3.16 µM) 10.2% | viability, T/C (second compound 0.316 µM, first compound 10 µM) 7.37% | viability, T/C (second compound 1 µM, first compound 3.16 µM) 10.7% | viability, T/C (second compound 1 µM, first compound 10 µM) 8.49% | viability, T/C (second compound 3.16 µM, first compound 3.16 µM) 11.6% | viability, T/C (second compound 3.16 µM, first compound 10 µM) 9.18% | viability, T/C (second compound 10 µM, first compound 0.0316 µM) 6.33% | viability, T/C (second compound 10 µM, first compound 0.1 µM) 1.93% | viability, T/C (second compound 10 µM, first compound 0.316 µM) 1.21% | viability, T/C (second compound 10 µM, first compound 1 µM) 0.96% | viability, T/C (second compound 10 µM, first compound 3.16 µM) 2.26% | viability, T/C (second compound 10 µM, first compound 10 µM) 2.09%
48.3 nM: IC50 (second compound 0.1 µM)
59.5 nM: IC50 (second compound 3.16 µM)

From PubChem BioAssay AID1919005 (Molecular Pharmacology Branch, DTP, NCI, 2023)
